Here are results for 15 compounds from ChEMBL document CHEMBL1136267, “Design and synthesis of novel PPARalpha/gamma/delta triple activators using a known PPARalpha/gamma dual activator as structural template” (Bioorg Med Chem Lett, 2003).

The target of assay [1] is T1, Peroxisome proliferator-activated receptor delta (Homo sapiens, UniProt Q03181).
T1 sequence (Q03181 whole entry): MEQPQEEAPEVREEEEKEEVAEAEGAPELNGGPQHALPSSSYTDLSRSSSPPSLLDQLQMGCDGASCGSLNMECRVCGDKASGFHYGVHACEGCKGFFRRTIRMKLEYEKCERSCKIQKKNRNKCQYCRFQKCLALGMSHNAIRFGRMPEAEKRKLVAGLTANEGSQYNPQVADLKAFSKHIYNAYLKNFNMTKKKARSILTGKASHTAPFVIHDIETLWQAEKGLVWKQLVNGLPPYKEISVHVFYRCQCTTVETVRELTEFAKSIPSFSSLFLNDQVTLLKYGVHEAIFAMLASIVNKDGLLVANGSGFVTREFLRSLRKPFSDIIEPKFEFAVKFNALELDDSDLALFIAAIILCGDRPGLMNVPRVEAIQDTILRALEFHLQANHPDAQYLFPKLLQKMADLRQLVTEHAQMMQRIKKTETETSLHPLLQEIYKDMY
The assay is described as follows: In vitro activation of human peroxisome proliferator activated receptor delta (PPAR delta).

For assay [2], the target named is T2, Peroxisome proliferator-activated receptor alpha (Homo sapiens, UniProt Q07869).
T2 sequence (Q07869 whole entry): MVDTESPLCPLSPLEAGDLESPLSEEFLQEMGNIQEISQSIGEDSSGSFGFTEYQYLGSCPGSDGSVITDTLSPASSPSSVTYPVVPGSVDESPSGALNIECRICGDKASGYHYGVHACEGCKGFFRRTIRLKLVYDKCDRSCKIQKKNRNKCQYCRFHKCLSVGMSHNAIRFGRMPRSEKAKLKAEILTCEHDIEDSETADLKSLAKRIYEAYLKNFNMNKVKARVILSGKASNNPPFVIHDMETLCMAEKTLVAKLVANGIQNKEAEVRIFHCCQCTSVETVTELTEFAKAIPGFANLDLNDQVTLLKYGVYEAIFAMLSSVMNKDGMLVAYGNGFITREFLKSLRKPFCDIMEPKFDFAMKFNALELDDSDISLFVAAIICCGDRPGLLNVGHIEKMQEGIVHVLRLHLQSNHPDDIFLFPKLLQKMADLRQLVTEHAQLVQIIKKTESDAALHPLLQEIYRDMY
Description: In vitro activation of human peroxisome proliferator activated receptor alpha

The target of assay [3] is T3, Peroxisome proliferator-activated receptor gamma (Homo sapiens, UniProt P37231).
T3 sequence (P37231 whole entry): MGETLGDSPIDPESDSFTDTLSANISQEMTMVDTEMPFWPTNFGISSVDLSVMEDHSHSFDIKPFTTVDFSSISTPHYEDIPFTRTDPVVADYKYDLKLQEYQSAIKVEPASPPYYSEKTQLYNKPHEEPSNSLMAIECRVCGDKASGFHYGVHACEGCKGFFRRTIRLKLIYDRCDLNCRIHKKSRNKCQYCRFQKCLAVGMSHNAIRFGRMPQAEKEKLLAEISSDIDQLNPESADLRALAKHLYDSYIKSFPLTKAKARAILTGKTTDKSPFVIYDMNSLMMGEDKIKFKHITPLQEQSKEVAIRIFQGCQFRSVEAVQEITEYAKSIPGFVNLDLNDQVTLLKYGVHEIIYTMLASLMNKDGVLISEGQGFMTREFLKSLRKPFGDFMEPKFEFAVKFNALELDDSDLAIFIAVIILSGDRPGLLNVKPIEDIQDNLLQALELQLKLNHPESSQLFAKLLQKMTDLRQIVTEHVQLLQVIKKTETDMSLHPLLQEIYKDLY
The assay is described as follows: In vitro activation of human peroxisome proliferator activated receptor gamma (PPAR gamma).

Usually EC50 stands for the concentration that produces a half-maximal response. A lower EC50 goes with higher potency in that assay.

With `CCO[C@@H](Cc1ccc(OCC=C(c2ccccc2)c2ccccc2)cc1)C(=O)O`, the EC50 stood at 5700 nM in assay [1], 6400 nM in assay [2] and 2700 nM in assay [3].

Consider `CCO[C@@H](Cc1ccc(OC/C=C(/c2ccccc2)c2ccc(F)cc2)cc1)C(=O)O`, for which the EC50 in assay [1] was found to be 3400 nM; in assay [2], 3200 nM; in assay [3] it was 4000 nM.

Turning to `CCO[C@@H](Cc1ccc(OC/C=C(\c2ccccc2)c2ccc(F)cc2)cc1)C(=O)O`, the EC50 is 8300 nM in assay [1], 5300 nM in assay [2] and 8500 nM in assay [3].

On to `CCO[C@@H](Cc1ccc(OCC=C(c2ccc(OC)cc2)c2ccc(OC)cc2)cc1)C(=O)O`, for which the EC50 amounted to 700 nM in assay [1], 2200 nM in assay [2] and 2200 nM in assay [3].

Turning to `CCO[C@@H](Cc1ccc(OCC=C(c2ccc(-c3ccccc3)cc2)c2ccc(-c3ccccc3)cc2)cc1)C(=O)O`, the EC50 in assay [1] was 500 nM; in assay [2], 1100 nM; in assay [3], 300 nM.

As to `CCO[C@@H](Cc1ccc(OC/C=C(\c2ccccc2)c2ccc(-c3ccccc3)cc2)cc1)C(=O)O`, the EC50 in assay [1] came out at 2200 nM; in assay [2], 900 nM; in assay [3], 600 nM.

With `CCO[C@@H](Cc1ccc(OC/C=C(/c2ccccc2)c2ccc(-c3ccccc3)cc2)cc1)C(=O)O`, the EC50 in assay [1] stood at 2200 nM; in assay [2], 700 nM; in assay [3], 1700 nM.

Take `CCO[C@@H](Cc1ccc(OCCN(c2ccccc2)c2ccccc2)cc1)C(=O)O`: the EC50 in assay [2] was found to be 4500 nM; in assay [3], 3300 nM.

Regarding `CCO[C@@H](Cc1ccc(OC/C=C(/c2ccccc2)c2ccc(Br)cc2)cc1)C(=O)O`, the EC50 came out at 3400 nM in assay [1], 2200 nM in assay [2] and 4300 nM in assay [3].

Regarding `CCO[C@@H](Cc1ccc(OCC=C(c2ccc(-c3ccco3)cc2)c2ccc(-c3ccco3)cc2)cc1)C(=O)O`, the EC50 in assay [1] was 1000 nM; in assay [2] it was 2000 nM; in assay [3], 2900 nM.

Regarding `CCO[C@@H](Cc1ccc(OCC=C(c2ccc(Br)cc2)c2ccc(Br)cc2)cc1)C(=O)O`, the EC50 in assay [1] was found to be 400 nM; in assay [2], 300 nM; in assay [3], 900 nM.

With `CCO[C@@H](Cc1ccc(OCC=C(c2ccc(C)cc2)c2ccc(C)cc2)cc1)C(=O)O`, the EC50 was determined as 2000 nM in assay [1], 700 nM in assay [2] and 3100 nM in assay [3].

Consider `CCO[C@@H](Cc1ccc(OC/C=C(\c2ccccc2)c2ccc(-c3ccco3)cc2)cc1)C(=O)O`, for which the EC50 in assay [1] is 600 nM; in assay [2], 300 nM; in assay [3], 800 nM.

Regarding `CCO[C@@H](Cc1ccc(OC/C=C(\c2ccccc2)c2ccc(Br)cc2)cc1)C(=O)O`, the EC50 in assay [1] was 900 nM; in assay [2] it was 1100 nM; in assay [3] it was 1500 nM.

As to `CCO[C@@H](Cc1ccc(OC/C=C(/c2ccccc2)c2ccc(-c3ccco3)cc2)cc1)C(=O)O`, the values for the EC50 in assay [1], in assay [2] and in assay [3] were 2000 nM, 400 nM and 2000 nM, respectively.
